Usually IC50 stands for the concentration needed to halve the response being measured. Broadly, the EC50 is the concentration needed to bring the measured effect to its halfway point.

The values that follow come from ChEMBL document CHEMBL1201862, “PubChem BioAssay data set” (2004).

The structures appear in SMILES notation. The source made the active and inactive calls. A value given as a limit tells only on which side of the number the result lay.

The target in one assay is T1, Coagulation factor XII (Homo sapiens, UniProt P00748).
T1 sequence (P00748 whole entry): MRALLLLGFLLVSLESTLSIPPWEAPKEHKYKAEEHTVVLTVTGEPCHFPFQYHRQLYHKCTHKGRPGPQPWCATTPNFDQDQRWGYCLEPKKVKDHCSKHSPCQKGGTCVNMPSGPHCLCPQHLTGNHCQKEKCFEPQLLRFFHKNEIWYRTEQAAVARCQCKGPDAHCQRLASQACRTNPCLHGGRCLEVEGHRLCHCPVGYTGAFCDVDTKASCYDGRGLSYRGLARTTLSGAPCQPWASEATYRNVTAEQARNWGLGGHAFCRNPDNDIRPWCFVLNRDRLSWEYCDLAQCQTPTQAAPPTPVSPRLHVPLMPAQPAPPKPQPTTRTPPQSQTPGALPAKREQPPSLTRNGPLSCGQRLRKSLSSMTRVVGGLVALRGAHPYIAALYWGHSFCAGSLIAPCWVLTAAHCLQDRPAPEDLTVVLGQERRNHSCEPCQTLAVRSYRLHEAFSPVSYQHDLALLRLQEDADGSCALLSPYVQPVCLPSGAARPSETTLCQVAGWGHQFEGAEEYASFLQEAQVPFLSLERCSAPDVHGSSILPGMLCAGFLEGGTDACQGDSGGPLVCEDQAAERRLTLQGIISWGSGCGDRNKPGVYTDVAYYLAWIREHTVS
The experiment in a line: Factor XIIa Dose Response Confirmation from Single Well HTS. [Related pubchem assays (depositor defined):AID701]. The format is functional.

Assay [1] deals with Peroxisome proliferator-activated receptor gamma/Nuclear receptor coactivator 2 (Homo sapiens, UniProt P37231). The format is functional.
Chain of Peroxisome proliferator-activated receptor gamma/Nuclear receptor coactivator 2 (P37231 whole entry): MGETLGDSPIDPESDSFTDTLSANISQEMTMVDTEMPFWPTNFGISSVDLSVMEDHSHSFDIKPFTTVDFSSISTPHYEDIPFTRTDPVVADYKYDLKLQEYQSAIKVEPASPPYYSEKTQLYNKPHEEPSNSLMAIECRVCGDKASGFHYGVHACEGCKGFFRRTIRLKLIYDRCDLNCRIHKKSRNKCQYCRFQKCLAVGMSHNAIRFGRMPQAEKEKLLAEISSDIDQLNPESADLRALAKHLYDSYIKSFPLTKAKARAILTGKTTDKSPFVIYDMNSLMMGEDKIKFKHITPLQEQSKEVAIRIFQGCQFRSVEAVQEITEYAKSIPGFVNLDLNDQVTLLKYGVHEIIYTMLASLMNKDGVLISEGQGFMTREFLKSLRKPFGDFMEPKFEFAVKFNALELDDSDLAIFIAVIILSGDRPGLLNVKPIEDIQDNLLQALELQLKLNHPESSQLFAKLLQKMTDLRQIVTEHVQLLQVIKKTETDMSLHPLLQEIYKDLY
Chain of Peroxisome proliferator-activated receptor gamma/Nuclear receptor coactivator 2 (Q15596 whole entry, further chain): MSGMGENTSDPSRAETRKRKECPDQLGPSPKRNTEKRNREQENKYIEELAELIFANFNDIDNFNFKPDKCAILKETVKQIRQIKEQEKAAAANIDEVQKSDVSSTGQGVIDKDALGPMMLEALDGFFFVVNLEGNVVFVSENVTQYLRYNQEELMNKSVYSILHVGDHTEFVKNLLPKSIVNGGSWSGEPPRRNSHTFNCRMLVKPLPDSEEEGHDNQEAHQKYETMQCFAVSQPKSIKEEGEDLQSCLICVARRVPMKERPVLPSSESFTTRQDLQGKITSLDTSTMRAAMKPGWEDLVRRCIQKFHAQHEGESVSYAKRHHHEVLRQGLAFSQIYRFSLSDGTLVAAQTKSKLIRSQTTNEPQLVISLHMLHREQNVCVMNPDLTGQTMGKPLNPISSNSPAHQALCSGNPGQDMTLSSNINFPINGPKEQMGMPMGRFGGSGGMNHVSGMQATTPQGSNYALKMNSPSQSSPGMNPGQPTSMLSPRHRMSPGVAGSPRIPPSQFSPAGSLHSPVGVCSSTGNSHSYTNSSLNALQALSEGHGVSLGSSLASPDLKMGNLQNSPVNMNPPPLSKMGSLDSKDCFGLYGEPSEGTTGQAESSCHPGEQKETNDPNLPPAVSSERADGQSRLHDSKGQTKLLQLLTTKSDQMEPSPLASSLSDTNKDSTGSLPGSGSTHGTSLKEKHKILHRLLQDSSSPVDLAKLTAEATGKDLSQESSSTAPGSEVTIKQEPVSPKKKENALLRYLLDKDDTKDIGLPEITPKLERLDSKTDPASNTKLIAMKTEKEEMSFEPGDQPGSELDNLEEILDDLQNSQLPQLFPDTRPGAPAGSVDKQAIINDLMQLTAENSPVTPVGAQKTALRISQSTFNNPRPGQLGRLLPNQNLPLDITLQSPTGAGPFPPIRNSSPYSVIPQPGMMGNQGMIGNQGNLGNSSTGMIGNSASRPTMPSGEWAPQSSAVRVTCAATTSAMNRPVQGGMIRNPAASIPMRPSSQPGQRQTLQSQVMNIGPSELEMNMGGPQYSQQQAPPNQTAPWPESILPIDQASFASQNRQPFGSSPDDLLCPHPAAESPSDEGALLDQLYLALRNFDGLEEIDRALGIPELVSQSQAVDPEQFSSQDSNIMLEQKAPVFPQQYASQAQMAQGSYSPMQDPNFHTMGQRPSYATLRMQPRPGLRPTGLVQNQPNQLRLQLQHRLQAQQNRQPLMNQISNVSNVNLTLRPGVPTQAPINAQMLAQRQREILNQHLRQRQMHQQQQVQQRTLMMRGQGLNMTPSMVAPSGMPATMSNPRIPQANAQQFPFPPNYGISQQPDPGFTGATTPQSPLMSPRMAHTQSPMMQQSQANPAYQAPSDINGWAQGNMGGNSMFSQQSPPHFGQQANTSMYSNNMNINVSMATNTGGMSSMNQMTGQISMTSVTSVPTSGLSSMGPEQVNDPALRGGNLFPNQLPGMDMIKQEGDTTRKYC
The target of assay [2] is Peroxisome proliferator-activated receptor gamma/Nuclear receptor coactivator 1 (Homo sapiens, UniProt P37231). The format is functional.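 Also: agonist potency as compounds enhance coactivator SRC-1 recruitment to PPARgamma.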
The target of assay [3] is Peroxisome proliferator-activated receptor gamma/Nuclear receptor coactivator 3 (Homo sapiens, UniProt P37231). The format is functional.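 Also: agonist potency for raising coactivator recruitment to the receptor.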
Chain of Peroxisome proliferator-activated receptor gamma/Nuclear receptor coactivator 3 (P37231 whole entry): as the sequence (P37231 whole entry) above
Chain of Peroxisome proliferator-activated receptor gamma/Nuclear receptor coactivator 3 (Q9Y6Q9 whole entry, further chain): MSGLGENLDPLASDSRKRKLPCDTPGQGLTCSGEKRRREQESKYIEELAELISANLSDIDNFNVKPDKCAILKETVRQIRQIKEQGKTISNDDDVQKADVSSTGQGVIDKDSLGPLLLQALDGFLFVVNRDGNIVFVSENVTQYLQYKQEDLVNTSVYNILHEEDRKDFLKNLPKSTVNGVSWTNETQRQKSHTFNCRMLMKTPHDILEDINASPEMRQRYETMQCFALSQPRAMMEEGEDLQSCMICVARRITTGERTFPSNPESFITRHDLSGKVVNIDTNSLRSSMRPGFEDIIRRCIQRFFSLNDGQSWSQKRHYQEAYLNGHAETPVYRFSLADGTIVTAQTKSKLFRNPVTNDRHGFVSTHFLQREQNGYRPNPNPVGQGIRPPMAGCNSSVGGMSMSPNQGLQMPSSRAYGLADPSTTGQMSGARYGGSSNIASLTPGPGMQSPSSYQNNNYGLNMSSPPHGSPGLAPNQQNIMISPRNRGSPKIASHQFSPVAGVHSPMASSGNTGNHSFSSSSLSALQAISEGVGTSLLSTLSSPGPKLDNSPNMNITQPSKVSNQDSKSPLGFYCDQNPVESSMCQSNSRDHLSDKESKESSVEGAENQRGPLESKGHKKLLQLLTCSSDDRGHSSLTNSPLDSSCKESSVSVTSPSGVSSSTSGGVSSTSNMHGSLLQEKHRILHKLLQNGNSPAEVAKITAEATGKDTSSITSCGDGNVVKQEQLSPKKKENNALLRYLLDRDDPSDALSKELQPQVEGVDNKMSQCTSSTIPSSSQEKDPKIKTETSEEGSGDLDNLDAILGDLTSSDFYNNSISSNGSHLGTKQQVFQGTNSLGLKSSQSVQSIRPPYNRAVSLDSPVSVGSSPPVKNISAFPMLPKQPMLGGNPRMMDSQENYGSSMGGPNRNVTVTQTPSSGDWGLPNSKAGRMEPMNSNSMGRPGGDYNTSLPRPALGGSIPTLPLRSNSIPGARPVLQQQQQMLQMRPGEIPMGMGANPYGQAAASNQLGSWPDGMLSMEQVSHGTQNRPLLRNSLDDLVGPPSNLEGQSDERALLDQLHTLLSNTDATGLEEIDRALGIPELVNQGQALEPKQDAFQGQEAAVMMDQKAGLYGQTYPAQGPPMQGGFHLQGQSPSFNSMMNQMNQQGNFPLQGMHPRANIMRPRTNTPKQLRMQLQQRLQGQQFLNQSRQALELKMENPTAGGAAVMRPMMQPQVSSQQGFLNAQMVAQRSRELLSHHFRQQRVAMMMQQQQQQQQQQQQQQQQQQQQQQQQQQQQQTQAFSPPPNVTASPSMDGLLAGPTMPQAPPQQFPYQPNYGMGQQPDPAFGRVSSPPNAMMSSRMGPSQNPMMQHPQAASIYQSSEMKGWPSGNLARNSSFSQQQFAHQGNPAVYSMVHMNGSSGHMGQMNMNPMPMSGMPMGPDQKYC
A short description of assay [4]: Trypanosoma cruzi growth suppression in host cells – NIH3T3 host cells, beta-gal luminescence, confirmation (AID 2044).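 Also: intracellular parasites grown in NIH/3T3 mouse fibroblasts as host cells; luminescent beta-galactosidase reporter signal from transgenic T. cruzi replicating inside host cells; inhibitors lower the luminescence signal.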 The format is functional, cell-based.
The target of another assay is T2, Hexokinase HKDC1 (Homo sapiens, UniProt Q2TB90).
T2 sequence (Q2TB90 whole entry): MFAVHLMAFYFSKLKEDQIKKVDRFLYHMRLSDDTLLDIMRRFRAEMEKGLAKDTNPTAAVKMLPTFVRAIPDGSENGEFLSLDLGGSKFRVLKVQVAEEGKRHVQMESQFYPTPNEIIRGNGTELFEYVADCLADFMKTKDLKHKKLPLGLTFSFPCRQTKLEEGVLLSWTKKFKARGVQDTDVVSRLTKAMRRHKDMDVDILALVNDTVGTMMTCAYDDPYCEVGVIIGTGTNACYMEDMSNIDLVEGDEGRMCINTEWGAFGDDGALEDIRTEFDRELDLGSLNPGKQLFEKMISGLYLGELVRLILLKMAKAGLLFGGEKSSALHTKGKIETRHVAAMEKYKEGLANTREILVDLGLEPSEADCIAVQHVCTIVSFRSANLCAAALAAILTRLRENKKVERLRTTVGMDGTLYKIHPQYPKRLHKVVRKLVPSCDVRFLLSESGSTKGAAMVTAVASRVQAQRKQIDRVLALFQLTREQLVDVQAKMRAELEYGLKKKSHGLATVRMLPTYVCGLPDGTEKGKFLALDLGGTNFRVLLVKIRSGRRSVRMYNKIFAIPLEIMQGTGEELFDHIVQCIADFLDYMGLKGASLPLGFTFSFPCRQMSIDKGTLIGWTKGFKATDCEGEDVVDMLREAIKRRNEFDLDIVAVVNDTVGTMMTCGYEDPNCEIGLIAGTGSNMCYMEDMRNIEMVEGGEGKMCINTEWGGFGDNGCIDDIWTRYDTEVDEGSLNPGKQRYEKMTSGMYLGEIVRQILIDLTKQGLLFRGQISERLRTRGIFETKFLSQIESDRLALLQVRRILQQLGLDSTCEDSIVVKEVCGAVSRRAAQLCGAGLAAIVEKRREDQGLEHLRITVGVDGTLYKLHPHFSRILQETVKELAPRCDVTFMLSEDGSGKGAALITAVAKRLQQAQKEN
Briefly: activation of HKDC1 glucose phosphorylation – biochemical, W721R variant, dose response (AID 504730). The format is functional.

Assay [5] addresses T3, Heat shock factor protein 1 (Mus musculus, UniProt P38532).
T3 sequence (P38532 whole entry): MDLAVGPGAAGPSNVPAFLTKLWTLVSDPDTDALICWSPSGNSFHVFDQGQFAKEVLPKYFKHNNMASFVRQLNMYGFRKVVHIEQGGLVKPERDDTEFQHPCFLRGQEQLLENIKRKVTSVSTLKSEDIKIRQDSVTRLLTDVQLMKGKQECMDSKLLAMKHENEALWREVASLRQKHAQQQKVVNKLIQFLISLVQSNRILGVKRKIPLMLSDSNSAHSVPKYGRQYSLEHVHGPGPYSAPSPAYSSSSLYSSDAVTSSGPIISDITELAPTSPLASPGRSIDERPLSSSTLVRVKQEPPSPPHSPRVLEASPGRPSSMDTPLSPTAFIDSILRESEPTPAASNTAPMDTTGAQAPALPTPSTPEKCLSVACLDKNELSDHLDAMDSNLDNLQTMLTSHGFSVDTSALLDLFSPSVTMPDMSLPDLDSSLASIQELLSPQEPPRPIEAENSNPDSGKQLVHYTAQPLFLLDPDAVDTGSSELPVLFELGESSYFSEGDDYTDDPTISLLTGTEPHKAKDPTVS
Briefly: enhancement of HSF1-driven luciferase signal – cell-based, NIH3T3, luminescence, dose retest, confirmation (AID 435004).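 Also: stress induced by proteasome inhibitor MG132 added 30 min after compound; luciferase reporter driven by HSF1 response element in NIH3T3 cells; actives raise luminescence as potentiators of the MG132 stress response.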 The format is functional.

The target of another assay is Hexokinase-1 (Homo sapiens, UniProt P19367). The experiment in a line: HK1 enzyme activation by HKDC1 hits – biochemical, selectivity assay for HKDC1 activator project, dose response (AID 504762). The format is functional.
Chain of Hexokinase-1 (P19367 whole entry): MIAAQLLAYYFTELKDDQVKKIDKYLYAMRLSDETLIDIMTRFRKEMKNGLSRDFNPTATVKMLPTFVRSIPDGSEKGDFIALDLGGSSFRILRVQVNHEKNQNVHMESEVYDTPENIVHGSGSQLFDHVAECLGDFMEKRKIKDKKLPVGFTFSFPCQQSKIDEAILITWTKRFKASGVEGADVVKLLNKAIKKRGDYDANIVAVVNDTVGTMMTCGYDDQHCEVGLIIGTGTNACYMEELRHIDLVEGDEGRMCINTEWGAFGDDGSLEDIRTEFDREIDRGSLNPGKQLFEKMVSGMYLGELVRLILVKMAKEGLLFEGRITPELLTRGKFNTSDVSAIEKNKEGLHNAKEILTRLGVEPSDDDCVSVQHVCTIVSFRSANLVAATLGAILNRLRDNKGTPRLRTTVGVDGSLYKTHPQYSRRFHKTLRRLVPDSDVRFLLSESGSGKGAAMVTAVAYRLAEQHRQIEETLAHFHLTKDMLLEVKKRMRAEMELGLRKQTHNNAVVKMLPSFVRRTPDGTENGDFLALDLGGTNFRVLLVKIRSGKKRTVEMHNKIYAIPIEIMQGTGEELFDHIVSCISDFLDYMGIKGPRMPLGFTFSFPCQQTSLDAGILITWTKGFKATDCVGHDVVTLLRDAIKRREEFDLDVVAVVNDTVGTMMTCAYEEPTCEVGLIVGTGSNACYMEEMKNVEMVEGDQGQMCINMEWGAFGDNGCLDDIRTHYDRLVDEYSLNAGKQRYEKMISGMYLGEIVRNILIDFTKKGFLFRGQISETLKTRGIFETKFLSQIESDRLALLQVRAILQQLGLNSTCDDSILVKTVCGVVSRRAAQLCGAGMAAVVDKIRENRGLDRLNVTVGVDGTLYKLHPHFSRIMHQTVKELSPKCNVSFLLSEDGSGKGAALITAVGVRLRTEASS
Assay [6] concerns HEK293. The experiment in a line: cells. To be noted: Homo sapiens.
Assay [7] has as its system HEK293. Briefly: cells. To be noted: Homo sapiens. The source holds these as a separate data set.
Assay [8] has as its target T4, Dual specificity protein phosphatase 3 (Homo sapiens, UniProt P51452). Briefly: SAR VHR1 absorbance Assay for In Vitro dose response studies. [Related pubchem assays (depositor defined):AID1654, AID1661, AID1878, AID1992, AID2004].
The target in assay [9] is T4, Dual specificity protein phosphatase 3. The experiment in a line: SAR VHR1 Fluorescent Assay for In Vitro dose response studies. [Related pubchem assays (depositor defined):AID1654, AID1661, AID1878, AID1992, AID2004, AID2070, AID2085]. The format is functional.
In assay [10] the target is T5, Tyrosine-protein phosphatase non-receptor type 7 (Homo sapiens, UniProt P35236).
T5 sequence (P35236 whole entry): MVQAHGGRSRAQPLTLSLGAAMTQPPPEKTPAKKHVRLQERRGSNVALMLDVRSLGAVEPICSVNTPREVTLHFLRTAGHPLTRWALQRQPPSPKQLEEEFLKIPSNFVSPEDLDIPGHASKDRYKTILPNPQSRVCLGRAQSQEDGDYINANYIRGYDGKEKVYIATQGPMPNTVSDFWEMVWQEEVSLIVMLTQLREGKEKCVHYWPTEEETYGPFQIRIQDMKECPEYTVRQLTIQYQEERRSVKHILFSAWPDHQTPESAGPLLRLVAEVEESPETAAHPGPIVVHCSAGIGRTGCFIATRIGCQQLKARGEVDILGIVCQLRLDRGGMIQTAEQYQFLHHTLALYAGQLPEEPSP
Briefly: redox-active compounds inhibiting HePTP phosphatase – biochemical, fluorescence, mechanism study (AID 2068). The format is functional.

The target of assay [11] is T4, Dual specificity protein phosphatase 3. The experiment in a line: SAR VHR1 Fluorescent Assay for In Vitro dose response studies Set 2. [Related pubchem assays (depositor defined):AID1654, AID1661, AID1878]. The format is functional.
Assay [12] deals with Dual specificity protein phosphatase 6 (Rattus norvegicus, UniProt Q64346). The format is functional.
The target of assay [13] is Voltage-dependent T-type calcium channel subunit alpha-1H (Homo sapiens, UniProt O95180). The experiment in a line: human CACNA1H calcium influx blockade – cell-based, synthetic library set 2, HEK293 HH8, Fluo-4, SAR follow-up (AID 493023). The format is functional.

T4 sequence (P51452 whole entry): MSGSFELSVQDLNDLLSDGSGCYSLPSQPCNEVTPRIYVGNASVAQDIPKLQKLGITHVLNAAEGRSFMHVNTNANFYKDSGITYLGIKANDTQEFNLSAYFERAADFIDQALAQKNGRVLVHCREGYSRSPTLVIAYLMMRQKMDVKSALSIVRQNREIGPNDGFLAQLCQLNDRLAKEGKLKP

Consider `COC(=O)[C@H](C)NC(=O)NC(C)CCc1ccccc1` (stereo partly specified), for which the IC50 on Coagulation factor XII was > 50 µM (inactive).
For `O=C(CSc1cccc2cccnc12)N/N=C/c1cccnc1`, the EC50 in [1] was > 79.4 µM (not active); in assay [2] it was > 79.4 µM (not active); in assay [3], > 79.4 µM (not active); in assay [4], 0.579 µM (active); at Hexokinase HKDC1 it was 27.6 µM (inactive); in assay [5], 6.99 µM (active). The EC50 on Hexokinase-1 is > 80 µM (inactive); in the assay with HEK293 [6] it was > 59.6 µM (inactive); with HEK293 [7], > 59.6 µM (inactive).
Consider `CN(C)S(=O)(=O)c1cc(C(=O)NC2CCSc3ccccc32)ccc1Cl` (stereo unspecified), for which the IC50 in assay [8], in assay [9], in assay [10], in assay [11] and in assay [12] was > 100 µM (inactive) in each case.
As for `O=C(NC1CCC2CN(Cc3ccccc3)CC21)c1ccc(Cl)cc1Cl` (stereo unspecified), the EC50 in assay [13] was 10 µM (active).
